Here are results for ten compounds from article PMC11117333, “Design and synthesis of new dihydropyrimidine/sulphonamide hybrids as promising anti-inflammatory agents via dual mPGES-1/5-LOX inhibition” (Frontiers in Chemistry, 2024).

Values joined by “and” are separate entries in the source; they are usually repeats but may differ in a detail not shown here. Equal entries are not always repeated. Where two headings read alike, the source gives them in different places. Marks after values point to notes of the source that are not given here.

One may read the IC50 as the concentration needed to halve the response being measured. A word on the melting point: it is the temperature, or range, at which the solid turns liquid.

For one series, the system named is rat intestinal mucosa. The series can be described thus: Gastric ulcerogenic activity (macroscopic inspection). The format is in vivo. The arrangement: Score: Severity lesions: scale not given here. As to conditions: oral 10 mg/kg. As for the experimental part: The two most common side effects of long-term NSAID use are gastrointestinal erosion and ulcers ([Hendawy et al., 2021]). As a result, we were curious about the ulcerogenic potential of the most efficacious drugs, 3e and 3j, when given orally. The ulcerogenic effects of 3e and 3j were assessed by macroscopic inspection of rat intestinal mucosa after oral administration of 10 mg/kg of 3e, 3j, indomethacin, and celecoxib ([Manivannan and Chaturvedi, 2011]).
The ulcerogenic effects of compounds 3e and 3j were evaluated by macroscopic examination of rat intestinal mucosa after oral administration of 10 mg/kg of these compounds and indomethacin and celecoxib ([Manivannan and Chaturvedi, 2011]). See Appendix A for details.

For a further series, the target named is T1, soya bean 5-LOX (Glycine max, UniProt P08170).
T1 construct: purchased Cayman Chemical, Ann Arbor, Michigan, USA 760700
T1 sequence (P08170 1-839): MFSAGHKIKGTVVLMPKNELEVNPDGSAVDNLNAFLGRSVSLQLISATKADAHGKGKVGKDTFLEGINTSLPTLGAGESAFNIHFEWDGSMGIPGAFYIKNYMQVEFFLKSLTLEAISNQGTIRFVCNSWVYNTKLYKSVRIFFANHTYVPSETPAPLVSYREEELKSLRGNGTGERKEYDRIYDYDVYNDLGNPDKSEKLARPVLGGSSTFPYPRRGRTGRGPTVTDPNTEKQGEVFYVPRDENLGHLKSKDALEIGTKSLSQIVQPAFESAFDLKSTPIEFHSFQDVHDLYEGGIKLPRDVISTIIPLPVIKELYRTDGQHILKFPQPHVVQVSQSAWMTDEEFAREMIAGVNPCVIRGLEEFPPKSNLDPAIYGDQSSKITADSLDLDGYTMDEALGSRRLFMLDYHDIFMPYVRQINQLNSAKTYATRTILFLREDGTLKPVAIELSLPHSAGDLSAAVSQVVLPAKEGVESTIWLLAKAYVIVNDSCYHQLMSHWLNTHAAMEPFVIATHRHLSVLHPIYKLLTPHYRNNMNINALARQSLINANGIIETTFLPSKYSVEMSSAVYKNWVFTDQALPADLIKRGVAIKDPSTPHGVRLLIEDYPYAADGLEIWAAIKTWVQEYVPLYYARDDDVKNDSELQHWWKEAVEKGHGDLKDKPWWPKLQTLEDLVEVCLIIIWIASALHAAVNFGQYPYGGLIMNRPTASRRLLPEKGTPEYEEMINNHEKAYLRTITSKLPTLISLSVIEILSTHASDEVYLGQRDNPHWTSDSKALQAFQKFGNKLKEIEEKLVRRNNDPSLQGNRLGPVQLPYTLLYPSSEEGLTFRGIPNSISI
The experiment in a line: 5-LOX enzyme assay (EIA kit, Cayman 760700). The format is biochemical. From the text:
The capacity of compounds 3a–j to inhibit the enzyme 5-lipoxygenase (5-LOX) has been investigated ([Youssif et al., 2019]).
The study used an enzyme immune assay (EIA) kit (catalogue no. 760700, Cayman Chemical, Ann Arbor, Michigan, USA) to evaluate the inhibitory activity of target analogues against soya bean 5-LOX, ensuring compliance with manufacturer’s instructions and protocols, and calculating IC50 values ([Roschek et al., 2009]).

Another series concerns PGE2. The series can be described thus: Rat serum PGE2 after carrageenan (ELISA). The format is in vivo. As to conditions: 4 hours after subcutaneous carrageenan; for PGE2 serum concentration: mean ± SE. From the text: Inhibiting PGE2 is a crucial strategy in anti-inflammatory therapy, playing a pivotal role in managing inflammation and its associated conditions.
(§1) In this study, specializing ELISA kits were used to determine the concentration of inflammatory cytokines PGE2, IL-6, and TNF-α. The study’s findings were examined in accordance with the instructions provided by the manufacturer, and measurements were taken based on the optical density at 450 nm.

Series [1] has as its system carrageen-induced paw edema. The experiment in a line: Carrageenan-induced paw edema bioassay. The format is in vivo, rat. Also on record: concentration or dose not given beside the values. As to conditions: for % Of edema inhibition 1 h: 1 h after carrageenan injection; for % Of edema inhibition 3 h: 3 h after carrageenan injection; for % Of edema inhibition 5 h: 5 h after carrageenan injection. As for the experimental part:
The compounds’ efficacy was measured as edema inhibition percentage (EI %) after 1, 3, and 5 h of carrageenan injection vs. the conventional medicine Celecoxib.
Compounds 3c, 3e, 3h, and 3j were chosen for in vivo anti-inflammatory testing using the carrageen-induced paw edema bioassay method described by [Winter et al, (1962)]. The compounds’ efficacy was measured as edema inhibition percentage (EI%) after 1, 3, and 5 h of carrageenan injection vs. the conventional medicine Celecoxib.

Another series deals with IL-6. The experiment in a line: Rat serum IL-6 after carrageenan (ELISA). As to conditions: for IL-6 serum concentration: mean ± SE. The format is in vivo.
From the text: as §1

A further series has as its system TNF-α. The experiment in a line: Rat serum TNF-α after carrageenan (ELISA). The format is in vivo. Particulars: for TNFα serum concentration: mean ± SE.
From the text: as §1
In general terms: ELISA stands for enzyme-linked immunosorbent assay.

Series [2] deals with T2, mPGES-1 (Homo sapiens, UniProt O14684).
T2 construct: microsomal fractions from IL-1β-stimulated A549 cells served as the enzyme source; endogenous in cells; host or cells: A549 cells (IL-1β-stimulated), microsomal fraction
T2 sequence (O14684 1-152): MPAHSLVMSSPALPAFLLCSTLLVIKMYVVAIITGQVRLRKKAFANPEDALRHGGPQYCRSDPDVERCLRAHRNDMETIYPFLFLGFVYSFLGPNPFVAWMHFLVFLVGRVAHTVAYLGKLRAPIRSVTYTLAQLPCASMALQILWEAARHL
The experiment in a line: Cell-free mPGES-1 enzyme assay (microsomal fractions from IL-1β-stimulated A549 cells). The format is biochemical. Particulars: for remaining activity at 10 µM: 10 µM compound, read-out: mPGES-1 RA (%) 10 µM (residual activity percentage); for remaining activity at 10 µM / IC50: cell-free, A549 microsomes. As for the experimental part:
A cell-free assay was conducted to evaluate the capacity of compounds […] to act as inhibitors of mPGES-1. In this assay, microsomal fractions from IL-1β-stimulated A549 cells served as the enzyme source ([Gürses et al., 2021]). During the initial screening phase, compounds 3a–j were examined for their effects on mPGES-1 at a concentration of 10 µM.
Microsomal measures of A549 cells expressing mPGES-1 were made in accordance with prior research findings ([Koeberle et al., 2008]). These cells were cultivated in Dulbecco’s Modified Eagle Medium and resuspended in a homogenization buffer. Subsequently, the microsomes were subjected to pre-incubation with either assessed compounds or a carrier solution containing 0.1 percent DMSO. The enzymatic process was halted by introducing FeCl3, citric acid, and 11-PGE2 as an internal standard. The quantities of Prostaglandin E2 (PGE2) were measured via RP-HPLC methodologies.

Series [3] addresses T2, mPGES-1. As to conditions: cited from earlier work; for IC50: ref Lauro et al., 2014.
A further series concerns 5-LOX. Particulars: cited from earlier work.
Series [4] has as its system PGE2 production in A549 cells. The arrangement: method as in Kim et al., 2021. As to conditions: ref Kim et al., 2021; cited from earlier work.

Take `COc1ccc(C2NC(=S)NC(C)=C2C(=O)Nc2ccc(S(N)(=O)=O)cc2)cc1OC` (stereo not drawn) [Compound 3e, 4-[3,4-dimethoxyphenyl]-6-methyl-N-[4-sulfamoylphenyl]-2-thioxo-1,2,3,4-tetrahydropyrimidine-5-carboxamide]: the melting point lay within 272 to 274 °C. Also, in the series on rat intestinal mucosa, the “Score: No. of gastric ulcers” value is 0.60 ± 0.01, the “Score: Severity lesions” value was found to be 1.00 ± 0.01 and the “Ulceration in the isolated rat stomach (in words)” value is given as “mild hyperemia but no widespread ulceration”. It took 2.07 µM to reach half-maximal inhibition on soya bean 5-LOX (IC50). Besides, in the series with PGE2, the PGE2 %inhibition was 72.70% and 73%; the PGE2 serum concentration is given as 83.50 ± 2.30 ^b pg/mL. Further, in [1], the “% Of edema inhibition 1 h” value worked out at 35%, the “% Of edema inhibition 3 h” value was 57% and the “% Of edema inhibition 5 h” value is recorded as 65%. Moreover, in the series with IL-6, the IL-6 %inhibition came out at 75% and the IL-6 serum concentration was 94.10 ± 2.75 ^b pg/mL. Further, in the series on TNF-α, the TNFα %inhibition is given as 67% and the TNFα serum concentration is listed as 78.10 ± 2.20 ^b pg/mL. For the same compound, at mPGES-1 [2], the remaining activity at 10 µM stood at 28.6% and half-maximal inhibition (IC50) was put at 0.97 µM.
`COc1ccc(C2NC(=O)NC(C)=C2C(=O)Nc2ccc(S(N)(=O)=O)cc2)cc1OC` (stereo not drawn) [Compound 3j, 4-[3,4-dimethoxyphenyl]-6-methyl-2-oxo-N-[4-sulfamoylphenyl]-1,2,3,4-tetrahydropyrimidine-5-carboxamide] yielded a melting point of 266 to 267 °C. Besides, in the series with rat intestinal mucosa, the “Score: No. of gastric ulcers” value is recorded as 0, the “Score: Severity lesions” value is on record as 0 and the “Ulceration in the isolated rat stomach (in words)” value is “did not generate ulceration”. Also, the half-inhibitory concentration (IC50) against soya bean 5-LOX is 1.98 µM and 1.89 µM. For the same compound, in the series on PGE2, the PGE2 %inhibition was 79.20% and 79%; the PGE2 serum concentration is 62.60 ± 2.75 ^b pg/mL. Further, in series [1], the “% Of edema inhibition 1 h” value turned out to be 38%, the “% Of edema inhibition 3 h” value worked out at 60% and the “% Of edema inhibition 5 h” value came to 71%. In the series with IL-6, the IL-6 %inhibition is listed as 77% and the IL-6 serum concentration is reported as 85.50 ± 2.35^bc pg/mL. Also, in the series with TNF-α, the TNFα %inhibition amounted to 71% and the TNFα serum concentration is given as 68.50 ± 2.00^bc pg/mL. Moreover, at mPGES-1 [2], the remaining activity at 10 µM is 24.7% and inhibition was half-maximal at 0.92 µM (IC50). Further, the “fold more potent than the reference MK886 (mPGES-1)” value at mPGES-1 [2] (from IC50 values) came to 2.4 fold.
`CC1=C(C(=O)OCc2ccccc2)C(c2ccc(-c3cccc(C(F)(F)F)c3)o2)NC(=O)N1CCC(=O)O` (stereo not drawn) [III]: the “fold higher activity than compound I (mPGES-1)” value on mPGES-1 [3] (ref Terracciano et al., 2015) is on record as 10 fold.
Turning to `CCOC(=O)C1=C(C(=O)c2ccc(OC)cc2)C(c2ccc(-c3cccc(C(F)(F)F)c3)o2)NC(=O)N1C` (stereo not drawn) [II], at mPGES-1 [3], the half-maximal inhibitory concentration (IC50) is 7.56 ± 0.94 µM.
As to `CCOC(=O)CCSC1=NC(c2ccccc2)C=C(c2ccccc2)N1` (stereo not drawn) [IV], in the series on 5-LOX (100 μg/mL, ref Lokwani et al., 2015), the “5-LOX % inhibition at 100 μg/mL” value is 51.84%. Besides, in the series with 5-LOX (ref Lokwani et al., 2015), the half-maximal inhibitory concentration (IC50) was 19.1 µM.
In the case of `CCOC(=O)C1=C(C(=O)c2ccc(OC)cc2)C(c2ccc(-c3cccc(C(F)(F)F)c3)o2)NC(=O)N1` (stereo not drawn) [I], the concentration for half-maximal inhibition (IC50) on mPGES-1 [3] was 4.16 ± 0.47 µM.
In the case of `O=C(Cc1cn(-c2ccccc2)nc1-c1ccc(Cl)cc1)NS(=O)(=O)c1ccc(Cl)cc1` [VIII], the “folds more potent than lonazolac calcium against mPGES-1” value on mPGES-1 [3] (ref Elkady et al., 2012) is 19 fold. In addition, in the series with 5-LOX (ref Elkady et al., 2012), the concentration for half-maximal inhibition (IC50) is 2.9 µM and the “folds more potent than lonazolac calcium against 5-LOX” value is reported as 20 fold.
Take `COc1ccc2c(c1)c(CC(=O)NS(=O)(=O)c1ccc(C)cc1)c(C)n2C(=O)c1ccc(Cl)cc1` [VII]: the IC50 in the series on 5-LOX (ref Elkady et al., 2012) was 2.9 µM.
In the case of `O=C(Nc1ccc(OCCCCc2ccccc2)cc1)N(Cc1ccccc1)S(=O)(=O)c1ccc(Cl)cc1` [VI], in series [4], the IC50 is 0.24 µM and the “fold more active than the standard inhibitor MK-886 (PGE2 production)” value is recorded as “about 9 fold”.
As to `COC(=O)C1=C(C)NC(Nc2cc(O)cc(Cl)c2)=NC1c1ccc(Cl)cc1` (stereo not drawn) [V], the 5-LOX % inhibition in the series on 5-LOX (2.46 µM concentration, ref Venugopala et al., 2015) is listed as 81.19%.
